Here are results for 16 molecules from paper PMC7175122 (Biomolecules, 2020).

Entries after “also recorded” stand apart in the source; their conditions may differ. Read-outs that look alike come from different tables or passages of the source. Square brackets hold non-standard residues; d marks the D form. Side chains are listed from the residue outwards. Peptide text beside a SMILES is read from it. hArg = N=C(N)NCCCC[C@H](N)C(=O)O; ΔPro = O=C(O)[C@@H]1C=CCN1; Dab = NCC[C@H](N)C(=O)O; Dhp = not defined here

Data set [1] addresses T1, VEGF-A165/NRP-1 complex (Homo sapiens, UniProt O14786).
T1 construct: purchased R&D Systems (Minneapolis, MN, USA)
T1 sequence (O14786 22-641 limits assumed): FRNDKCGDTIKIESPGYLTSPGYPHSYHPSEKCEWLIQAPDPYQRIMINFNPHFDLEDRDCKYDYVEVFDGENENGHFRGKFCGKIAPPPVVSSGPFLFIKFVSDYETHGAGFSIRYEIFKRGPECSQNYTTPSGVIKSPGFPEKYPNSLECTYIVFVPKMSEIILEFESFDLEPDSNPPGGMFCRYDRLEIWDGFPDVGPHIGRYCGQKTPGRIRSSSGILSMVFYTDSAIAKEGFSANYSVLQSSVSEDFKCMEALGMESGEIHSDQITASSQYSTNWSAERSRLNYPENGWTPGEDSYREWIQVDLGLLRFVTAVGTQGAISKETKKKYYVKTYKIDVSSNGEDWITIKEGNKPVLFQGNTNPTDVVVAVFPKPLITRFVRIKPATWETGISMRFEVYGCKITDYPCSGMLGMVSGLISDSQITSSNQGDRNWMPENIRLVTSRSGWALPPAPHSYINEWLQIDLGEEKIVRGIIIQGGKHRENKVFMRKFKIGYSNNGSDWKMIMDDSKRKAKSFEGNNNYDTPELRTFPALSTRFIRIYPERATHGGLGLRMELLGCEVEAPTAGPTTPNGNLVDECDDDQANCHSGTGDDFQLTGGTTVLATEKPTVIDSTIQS
Briefly: Competitive NRP-1-binding assay (bt-VEGF-A165/NRP-1 complex inhibition, chemiluminescent detection). Conditions: for IC50: inhibition of VEGF-A165/NRP-1 complex formation; for inhibition values (plateau): 1–50 μM concentrations, IC50 not calculable in this range. On the procedure: The method used was similar to the one previously described. The first step was a coating of a 96-well plate using 100 μL (200 ng/well) of recombinant human NRP-1. After overnight incubation at 4 °C, nonspecific binding was blocked with 0.5% BSA in PBS. Next, 50 µL of peptide in PBS in selected concentrations and 50 µL of human (bt)-VEGF-A165 (400 ng/mL) in PBS containing 4 µg/mL of heparin were added and incubated for 2 h at r.t. After washing, wells were treated with streptavidin-horseradish peroxidase conjugate in PBS (1:8000) for 45 min. Final washing was followed by an addition of 100 µL chemiluminescent substrate and the immediate quantitative determination of the luminescence. Wells incubated with (bt)-VEGF-A165 only served as a positive control (P), while not-coated by NRP-1 wells were used for a negative control (NS). Percentages of inhibition were calculated by the following formula:100% − [[(S − NS)/(P − NS)]·100%],(1) where S is the signal intensity obtained from wells incubated with the peptide. Presented data are the mean ± SEM of two or three independent experiments, each performed in triplicate.
IC50 of the peptides were calculated using the nonlinear regression function with Prism (GraphPad Software, San Diego, CA, USA). The same software was used to calculate and present the plasma stability assay results. All results are represented as an average, with error bars indicating ± SEM.
Peptides were tested by the bt-VEGF-A165/NRP-1 complex inhibition assay with chemiluminescent detection, as previously described. […] The amino acid was inserted in the same places as the Cys-Asp fragment previously. Compounds 3 and 4 were tested by the bt-VEGF-A165/NRP-1 inhibition assay at 1–50 μM concentrations.
2. Dose-response curves of synthesized peptides
The concentration-dependent inhibitory dose-curve data were plotted as the percentage inhibition normalized to the controls, with the applied curve fits calculated using GraphPad Prism (Version 5.01, GraphPad software). Data are presented as log(inhibitor) versus a normalized response-variable slope. Error bars represent means +/- SEM for two or three independent experiments. […]

Data set [2] is described as follows: Degradation assay in human plasma (enzymatic stability). In kind it is in vitro ADME. The conditions noted are these: human blood plasma, 37 °C; for remaining at 24 h: after 24 h, read-out: initial concentration still present in plasma; for remaining at 96 h: after 96 h, read-out: concentration remaining in plasma. On the procedure:
This assay was performed according to the method described previously. First, human blood plasma was preactivated in an Eppendorf ThermoMixer® Comfort (Hamburg, Germany) for 20 min at 37 °C (350 rpm). Next, the peptide dissolved in water (6 mg/mL; ~5 μmol/mL) was mixed with human plasma (~1 μmol/mL final concentration) and incubated in the same conditions. One-hundred microliters of the mixture was collected in 1.5-mL microtubes at selected time intervals (0–96 h), followed by protein precipitation by adding 100 μL of 98% ethanol and by vortexing for 1 min (3000 min^−1). Samples were centrifuged for 10 min at 4 °C (11,000 g), and 100 μL of supernatant was collected and lyophilized. Reconstituted in 100 μL of water, samples were subjected to RP-HPLC analysis. LC-MS analyses with a Shimadzu LCMS-2020 mass spectrometer (Duisburg, Germany) were done for selected samples. A detailed description of the method can be found in the Supplementary Materials. All results are represented as an average, with error bars indicating ± SEM determined from the results of two independent experiments performed in duplicates.
Compounds were incubated in human plasma at 37 °C, and at selected time intervals, samples were analyzed using RP-HPLC and LC-MS, as described previously. […] After 24 h, almost 50% of each compound’s initial concentration was still present in the plasma. Following the next time intervals, we observed a significant degradation of peptide 3 (~20% after 96 h) but a much slower decrease in the concentration of peptide 4 (~40% after 96 h). This is probably due to the slower detachment of Cys residue from the side chain (peptide 4) compared to detachment from the main chain (peptide 3). […] However, unmodified peptides tend to have short half-lives counted rather in minutes, e.g., ghrelin [48] and endomorphins, and modifications lead to extending this time often to only a few hours.
Table S4. Confidence intervals (95%) determined for calculated IC50.
Compound IC50 (µM) 95% Confidence Intervals
3. Analytical data of serum degradation
Analysis of plasma degradation products was carried out by HPLC-ESI-Q-MS with a Prominence HPLC system (binary pump system LC-20AD and autosampler SIL-20AC HT coupled to a SPD-20A UV detector and LCMS-2020 quadrupole mass detector).
Chromatographic separation was achieved on a Phenomenex Jupiter Proteo C12 column (250 × 4.6 mm) at 35 °C. Mobile phases consisted of H2O:TFA (99.95:0.05 v/v, phase A) and ACN:TFA (99.95:0.05 v/v, phase B) at a flow rate of 1.2 mL/min. […]
Elution was performed with a gradient as follows: t = 25 min., 0%–25% B. The injection volume was 15 μl. UV spectra were recorded at 190 nm.
The electrospray ionization (ESI) was operated in positive mode. […]

Data set [3] has as its target T1, VEGF-A165/NRP-1 complex. The conditions noted are these: cited from earlier work; for inhibition of the formation of the VEGF-A165/NRP-1 complex: concentration of 100 μM.
A short description of a further data set: human blood plasma. Conditions: 37 °C, up to 96 h.
The next data set in a line: PBS. The conditions noted are these: 22 °C, up to 4 h.
On the set-up of data set [4]: method as in PMID 30881620. Conditions: human plasma; cited from earlier work.
Setting [5] is: mean ± SEM, read-out: logIC50 (converted).
The mark [6] stands for this setting: reference peptide, read-out: RP IC50.

Turning to `N=C(N)NCCCC[C@H](N)C(=O)NCCCC[C@H](NC(=O)[C@H](CC(=O)O)NC(=O)[C@@H](N)CS)C(=O)N[C@@H](CCN)C(=O)N1CC=C[C@H]1C(=O)N[C@@H](CCCNC(=N)N)C(=O)O` [Compound 1, H-Cys-Asp-Lys(hArg)-Dab-Dhp-Arg-OH] (H-CDK(hArg)[Dab][ΔPro]R-OH), the IC50 at VEGF-A165/NRP-1 complex [1] (read-out: IC50) is 2.5 µM.

For the molecule `N=C(N)NCCCC[C@H](NC(=O)[C@H](CC(=O)O)NC(=O)[C@@H](N)CS)C(=O)NCCCC[C@H](N)C(=O)N[C@@H](CCN)C(=O)N1CC=C[C@H]1C(=O)N[C@@H](CCCNC(=N)N)C(=O)O` [Compound 2, H-Lys(Cys-Asp-hArg)-Dab-Dhp-Arg-OH] (H-K([hArg-Asp-Cys])[Dab][ΔPro]R-OH), at VEGF-A165/NRP-1 complex [1] (read-out: IC50), the IC50 is 2 µM.

Consider `N=C(N)NCCCC[C@H](N)C(=O)NCCCC[C@H](NC(=O)[C@@H](N)CS)C(=O)N[C@@H](CCN)C(=O)N1CC=C[C@H]1C(=O)N[C@@H](CCCNC(=N)N)C(=O)O` [Compound 3, H-Cys-Lys(hArg)-Dab-Dhp-Arg-OH] (H-CK(hArg)[Dab][ΔPro]R-OH), for which, in data set [2], the remaining at 24 h was about 50% and the remaining at 96 h is about 20%. Moreover, the “inhibition values (plateau)” value at VEGF-A165/NRP-1 complex [1] is reported as ~ 80%. The IC50 at VEGF-A165/NRP-1 complex [1] (setting [5]) is 0.0834 µM.

In the case of `N=C(N)NCCCC[C@H](NC(=O)[C@@H](N)CS)C(=O)NCCCC[C@H](N)C(=O)N[C@@H](CCN)C(=O)N1CC=C[C@H]1C(=O)N[C@@H](CCCNC(=N)N)C(=O)O` [Compound 4, H-Lys(Cys-hArg)-Dab-Dhp-Arg-OH] (H-K([hArg-Cys])[Dab][ΔPro]R-OH), in data set [2], the remaining at 24 h is about 50% and the remaining at 96 h was about 40%. On VEGF-A165/NRP-1 complex [1], the “inhibition values (plateau)” value is recorded as ~ 80%. The IC50 at VEGF-A165/NRP-1 complex [1] (setting [5]) is 0.064 µM.

Take `C[C@@H](O)[C@H](N)C(=O)N[C@@H](CCCCN)C(=O)N1CCC[C@H]1C(=O)N[C@@H](CCCNC(=N)N)C(=O)O` [Tuftsin, TKPR, reference compound] (H-TKPR-OH; N-terminus and C-terminus assumed): at VEGF-A165/NRP-1 complex [1] (100 µM concentration, read-out: percentage inhibitory effect), the inhibition at 100 µM was found to be 46%. Further, the results for the IC50 at VEGF-A165/NRP-1 complex [1] (read-out: IC50) and on VEGF-A165/NRP-1 complex [3] (setting [6]) were 100 µM and at least 100 µM, respectively.

CDKPRR: the “inhibition of the formation of the VEGF-A165/NRP-1 complex” value on VEGF-A165/NRP-1 complex [3] is about 100%.

Turning to “DKPRR [CDKPRR lacking the N-terminal Cys]”, the “percentage of inhibition of VEGF-A165/NRP-1 interaction” value on VEGF-A165/NRP-1 complex [3] (at 100 µM) was ~ 20%. Moreover, the IC50 with VEGF-A165/NRP-1 complex [3] (setting [6]) is over 100 µM.

With “ERTCDKPRR [fragment of the VEGF-A165 domain encoded by exons 7 and 8]”, in the data set with VEGF-A165/NRP-1 complex [3], the “inhibition of the formation of the VEGF-A165/NRP-1 complex” value is on record as about 100%.

Regarding H-CKPRR-OH [Compound 7, CKPRR], at VEGF-A165/NRP-1 complex [1] (setting [5]), the IC50 is 0.187 µM.

As for H-CLPPR-OH [Compound 5, CLPPR], at VEGF-A165/NRP-1 complex [1] (read-out: IC50), the IC50 was determined as 11.4 µM. In addition, the “fold decrease of IC50 compared to the A7R peptide” value on VEGF-A165/NRP-1 complex [1] (vs A7R) was “seven-fold”.

Take H-CTKPR-OH [Compound 6, CTKPR]: the IC50 on VEGF-A165/NRP-1 complex [1] (read-out: IC50) turned out to be 9.3 µM. Further, at VEGF-A165/NRP-1 complex [1] (vs tuftsin), the “fold increase of ligand affinity compared to tuftsin” value is recorded as “more than 11 fold”.

On to “H-Cys-Lys(hArg)-Dab-Dhp-Arg-OH (H-CK(hArg)[Dab][ΔPro]R-OH; SMILES N=C(N)NCCCC[C@H](N)C(=O)NCCCC[C@H](NC(=O)[C@@H](N)CS)C(=O)N[C@@H](CCN)C(=O)N1CC=C[C@H]1C(=O)N[C@@H](CCCNC(=N)N)C(=O)O)”, for which, in the data set “human blood plasma”, the cleaved bond entry is listed as “Cys-Lys, first_seen; also recorded: hArg-Lys; also recorded: Lys-Dab”. Further, the fragment found result in the data set “PBS” is “dimer, minor, 4 h”.

In the case of “H-Lys(Cys-hArg)-Dab-Dhp-Arg-OH (H-K([hArg-Cys])[Dab][ΔPro]R-OH)”, the cleaved bond result in the data set “human blood plasma” is reported as “Cys-hArg, first_seen; also recorded: hArg-Lys; also recorded: Lys-Dab”. Besides, the fragment found entry in the data set “PBS” is “dimer, minor, 4 h”.

“H-Lys(hArg)-Dab-Dhp-Arg-OH (H-K(hArg)[Dab][Dhp]R-OH; reading uncertain; also: printed as H-Lys(hArg)-Dab-Dhp-Arg-OH) [PP, parent branched peptide, previously published NRP-1 ligand]”: in the data set with VEGF-A165/NRP-1 complex [3] (parent peptide, data already published, read-out: IC50), the IC50 was 4.3 µM.

For the molecule H-Lys(hArg)-Dab-Dhp-Arg-OH [PP], in data set [4], the t1/2 is given as 51 h.

As for LPPR, on VEGF-A165/NRP-1 complex [3], the “share of A7R inhibition of NRP-1 activation by VEGF-A165 for which the sequence is responsible” value was 75%.
